Test results reported in patent publication US11248020B2, “Oligonucleotide compositions and methods for treating diseases” (priority 2017, dated 2022).

Columns and labels:
Alzheimer's Disease = test: Alzheimer's disease patients scored by MMSE and ADAScog; type: in vivo, human; details: average values per group
Procedure: In the first control group, the patients received conventional therapy, i.e., a reversible, noncompetitive glutamate receptors antagonist Memantine (10 mg per day). In the second control group the patients received placebo. Test group #4, and Test group #5 received compositions #4 and 5, respectively, in the form of extended release sublingual tablets (also comprising 12% hypromellose; 10% lactose monohydrate; 60% carbopol; 8% Polycarbophil; 10% starch-based gel) used 2 time a day. The patients were scored according to MMSE (Mini-Mental State Examination) and ADAScog (assessment of cognitive impairment) scales. 12 groups of 4 people were formed.

colon cancer = test: Azoxymethane colon cancer model in rats after total colectomy: recurrences, metastases, survival; type: in vivo, male albino Wistar rats
Procedure: The studies were performed in male albino Wistar rats (Rappolovo breeding nursery), aged 14 weeks, weighing 180-190 g. Prior to the study period, animals (n=600) were kept in identical conditions, and received the same diet. For modeling colon cancer, the animals received Azoxymethane (Sigma) in the amount of 10 mg/kg (in 0.9% NaCl) for 12 weeks. In 26 weeks, the abdomen of anesthetized animals was opened, and the presence and size of colon tumors and metastases was visually assessed. Animals bearing neoplasms of more than 3 mm in diameter and having no observed metastases (360 animals) were subjected to total colectomy. In 2 days after surgery, mono- and/or oligonucleotide mixtures were administered either parenterally (via IV) or enterally (with drinking water). Each group consisted of 20 animals. In 8 weeks, surviving animals were sacrificed (animals were randomized into groups with 10 surviving animals per group), and the recurrence rates and presence of metastases was evaluated.
Enteral Administration The first control group received no treatment. Test group #1, Test group #2, Test group #3, Test group #4, Test group #5, and Test group #6 received mixtures of mono- and/or oligonucleotides (from 1 to 100,000 mcg/kg/day) prepared with the use of different nucleases, as specified in Table 2, below:
The first control group received no treatment. The second control group received conventional therapy consisting of 5-fluorouracil (5 mg/kg/day). Test group #1, Test group #2, Test group #3, Test group #4, and Test group #5 were administered (from 1 to 100,000 mcg/kg/day for 30 days).

[1] = enteral administration (with drinking water), evaluated in 8 weeks
[2] = parenteral administration (via IV), 30 days

SMILES	Patients score ADAScog (Alzheimer's Disease; in 30 days)	Patients score MMSE (Alzheimer's Disease; in 30 days)	Patients score ADAScog (Alzheimer's Disease; in 90 days)	Patients score MMSE (Alzheimer's Disease; in 90 days)	Patients score ADAScog (Alzheimer's Disease; pre-treatment)	Patients score MMSE (Alzheimer's Disease; pre-treatment)	No. of animals in the group with recurrences or metastases (colon cancer; [1])	No. of animals with metastasis (colon cancer; [1])	No. of surviving animals/Total No. per group (colon cancer; enteral administration (with drinking water), in 8 weeks)	No. of animals in the group with recurrences or metastases (colon cancer; [2])	No. of animals with metastasis (colon cancer; [2])	No. of surviving animals/Total No. of animals per group (colon cancer; [2])
CC12CC3CC(C)(C1)CC(N)(C3)C2 [1st control group, Memantine]	37	15	37	16	41	13						
O=c1[nH]cc(F)c(=O)[nH]1 [2nd control, 5-fluorouracil]							4	7	13/20	4	6	14/20
